EP0326329B1, “Quinazoline derivatives useful as insecticides” (Dow AgroSciences LLC, priority 1988, dated 1989)

What was measured:
Assay type in all cases: in vivo
[1] = system: Erysiphe graminis tritici (powdery mildew); test: Greenhouse Test 1, foliar spray fungicide screen (POWD MDEW), host wheat; settings: disease control rating, 400 ppm (+++ at 100 ppm)
[2] = system: Botrytis cinerea (gray mold); test: Greenhouse Test 1, foliar spray fungicide screen (GRAY MOLD), host grape berries; settings: disease control rating, 400 ppm (+++ at 100 ppm)
[3] = system: southern armyworm (Spodopetra eridania Cramer); test: Mite/insect screen, sprayed squash leaves (SAW); settings: percent mortality; for mortality at 200 ppm / mortality at 400 ppm: Spodoptera eridania, read-out: SAW RESULTS %
Method in brief: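 For the armyworm test, two uninfested sprayed leaves were excised, once dry for an hour, and placed in a Petri dish holding larvae. Spray solutions came from an emulsifier-containing 50:50 acetone/alcohol formulation diluted with water and were applied to runoff.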

[4] = system: Pyricularia oryzae (rice blast); settings: disease control rating, foliar spray, host rice; 400 ppm (+++ at 100 ppm)
[5] = system: Twospotted spider mites (Tetranychus urticae Koch); test: Mite/insect screen, sprayed squash cotyledons (SM); settings: percent mortality; for mortality at 200 ppm / mortality at 400 ppm: Tetranychus urticae, read-out: SM RESULTS %
Method in brief: (§1)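 Mortality and phytotoxicity read after standard exposure periods on sprayed squash: cotyledons for melon aphids and twospotted spider mites, excised leaves placed with southern armyworm larvae. Spray solutions were water dilutions of acetone/alcohol stocks containing TOXIMUL R and S emulsifiers, applied to runoff at 10 psi and air-dried one hour.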

[6] = system: Southern corn rootworm (Diabrotica undecimpuctata howardi Barber); test: Mite/insect screen, soil treatment (CRW); settings: percent mortality; for mortality at 12 ppm / mortality at 24 ppm: Diabrotica, read-out: CRW RESULTS %
Method in brief: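 Compounds dissolved in acetone/alcohol (50:50) with Toximul R/S emulsifiers, diluted with water. Soil (15 g, with presoaked corn seed) treated with 1 mL test solution, dried 6–12 h, then five 2–3 instar larvae added; held at 23°C. Percent mortality and phytotoxicity scored after standard exposure periods.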

[7] = system: Puccinia recondita tritici (leaf rust); test: Greenhouse Test 1, foliar spray fungicide screen (LEAF RUST), host wheat; settings: disease control rating, 400 ppm (+++ at 100 ppm)
[8] = system: Pseudoperonospora cubensis (downy mildew); test: Greenhouse Test 1, foliar spray fungicide screen (DOWN MDEW), host squash; settings: disease control rating, 400 ppm (+++ at 100 ppm)
[9] = system: melon aphids (Aphis gossypii Glover); test: Mite/insect screen, sprayed squash cotyledons (MA); settings: percent mortality; for mortality at 200 ppm / mortality at 400 ppm: Aphis gossypii, read-out: MA RESULTS %
Method in brief: as §1

[10] = soil treatment, CRW rate 12.00 ppm
[11] = soil treatment, CRW rate 24.00 ppm

Compound	POWD MDEW [1]	GRAY MOLD [2]	mortality at 200 ppm ([3]; spray rate 200 ppm)	mortality at 400 ppm ([3]; spray rate 400 ppm)	RICE BLAST [4]	mortality at 200 ppm ([5]; spray rate 200 ppm)	mortality at 400 ppm ([5]; spray rate 400 ppm)	mortality at 12 ppm [6, 10]	mortality at 24 ppm [6, 11]	LEAF RUST [7]	DOWN MDEW [8]	mortality at 200 ppm ([9]; spray rate 200 ppm)	mortality at 400 ppm ([9]; spray rate 400 ppm)	further results
CC(C)c1ccc(CCCc2ncnc3ccccc23)cc1 [Example 126, 4-[3-[4-(1-methylethyl)phenyl]propyl]quinazoline]	+ (+ = 20-89% control at 400 ppm)	- (- = 0-19% control at 400 ppm)	0%	0%	+++ (+++ = 90-100% control at 100 ppm)	100%	100%	0%	0%	+ (+ = 20-89% control at 400 ppm)	++ (++ = 90-100% control at 400 ppm)	100%	80%	
CC(C)Oc1cccc(CCOc2ncnc3ccccc23)c1 [Example 146, 4-[2-[3-(1-methylethoxy)phenyl]ethoxy]quinazoline]	++ (++ = 90-100% control at 400 ppm)	+ (+ = 20-89% control at 400 ppm)	0%	0%	+++ (+++ = 90-100% control at 100 ppm)	100%	60%	0%	0%	++ (++ = 90-100% control at 400 ppm)	+++ (+++ = 90-100% control at 100 ppm)	100%	80%	
COc1cc(CCOc2ncnc3ccccc23)ccc1O [Example 147]	+++ (+++ = 90-100% control at 100 ppm)	- (- = 0-19% control at 400 ppm)	0%	0%	- (- = 0-19% control at 400 ppm)	0%	0%	0%	0%	+++ (+++ = 90-100% control at 100 ppm)	+++ (+++ = 90-100% control at 100 ppm)	50%	0%	
CCCCOc1ccc(CCOc2ncnc3ccccc23)cc1 [Example 180, 4-[2-(4-butoxyphenyl)ethoxy]quinazoline]	+++ (+++ = 90-100% control at 100 ppm)	- (- = 0-19% control at 400 ppm)	0%	100%	+++ (+++ = 90-100% control at 100 ppm)	80%	100%	0%	0%	+++ (+++ = 90-100% control at 100 ppm)	+++ (+++ = 90-100% control at 100 ppm)	50%	100%	
Fc1cccc2c(OCCc3ccc(-c4ccccc4)cc3)ncnc12 [Example 93, 8-fluoro-4-[2-(1,1'-biphenyl)-4-ylethoxy]quinazoline]	+++ (+++ = 90-100% control at 100 ppm)	- (- = 0-19% control at 400 ppm)			+++ (+++ = 90-100% control at 100 ppm)					+++ (+++ = 90-100% control at 100 ppm)	+++ (+++ = 90-100% control at 100 ppm)			SAW RESULTS % ([3]; spray rate 200 ppm): 100%; SAW RESULTS % ([3]; spray rate 400 ppm): 100%; SM RESULTS % ([5]; spray rate 200 ppm): 80%; SM RESULTS % ([5]; spray rate 400 ppm): 0%; CRW RESULTS % [6, 10]: 0%; CRW RESULTS % [6, 11]: 0%; MA RESULTS % ([9]; spray rate 200 ppm): 80%; MA RESULTS % ([9]; spray rate 400 ppm): 0%
Clc1cccc(CCOc2ncnc3ccccc23)c1 [Example 41, 4-[2-(3-chlorophenyl)ethoxy]quinazoline]	+++ (+++ = 90-100% control at 100 ppm)	- (- = 0-19% control at 400 ppm)		0%	++ (++ = 90-100% control at 400 ppm)		80%		0%	+++ (+++ = 90-100% control at 100 ppm)	+++ (+++ = 90-100% control at 100 ppm)		80%	SAW RESULTS % ([3]; rate not given): 0%; SM RESULTS % ([5]; rate not given): 0%; CRW RESULTS % ([6]; rate not given): 0%; MA RESULTS % ([9]; rate not given): 100%
c1ccc(CCOc2ncnc3ccccc23)cc1 [Example 33, 4-(2-phenylethoxy)quinazoline]	++ (++ = 90-100% control at 400 ppm)	- (- = 0-19% control at 400 ppm)	0%	0%	- (- = 0-19% control at 400 ppm)	50%	80%	0%	80%	+++ (+++ = 90-100% control at 100 ppm)	++ (++ = 90-100% control at 400 ppm)	80%	100%	
Fc1ccc(-c2ccc(CCOc3ncnc4ccccc34)cc2)cc1 [Example 144, 4-[2-(4'-fluoro-1,1'-biphenyl)-4-ylethoxy]quinazoline]	+++ (+++ = 90-100% control at 100 ppm)	- (- = 0-19% control at 400 ppm)	40%	0%	+++ (+++ = 90-100% control at 100 ppm)		100%	100%	40%	+++ (+++ = 90-100% control at 100 ppm)	+++ (+++ = 90-100% control at 100 ppm)	60%	100%	
c1ccc(CCCCOc2ncnc3ccccc23)cc1 [Example 42, 4-(4-phenylbutoxy)quinazoline]	+++ (+++ = 90-100% control at 100 ppm)	- (- = 0-19% control at 400 ppm)	0%	50%	+++ (+++ = 90-100% control at 100 ppm)	100%	100%	0%	0%	+++ (+++ = 90-100% control at 100 ppm)	+++ (+++ = 90-100% control at 100 ppm)	100%	100%	
Oc1ccccc1CCOc1ncnc2ccccc12 [Example 114, 4-[2-(2-hydroxyphenyl)ethoxy]quinazoline]	- (- = 0-19% control at 400 ppm)	- (- = 0-19% control at 400 ppm)	0%	0%	- (- = 0-19% control at 400 ppm)	0%	0%	0%	0%	+ (+ = 20-89% control at 400 ppm)	+ (+ = 20-89% control at 400 ppm)	60%	0%	
